Reference: patent US12084435B2, “Pyridine ring-substituted pyridazinol compounds and derivatives, preparation methods, herbicidal compositions and applications thereof” (Qingdao Kingagroot Chemical Compound Co., Ltd., priority 2018, dated 2024)

Assays:
[1] = system: monocotyledonous and dicotyledonous weed; experiment: Post-emergence test, weed control effect (Tables 6 and 7); assay type: in vivo; set-up: key: 10: completely dead; above 90% growth inhibition rate; above 80% growth inhibition rate; above 70% growth inhibition rate; above 60% growth inhibition rate; above 50% growth inhibition rate; above 40% growth inhibition rate; above 30% growth inhibition rate; above 20% growth inhibition rate; 1: below 20% growth inhibition rate; 0: no effect; details: for comparison experiment (activity level), Digitaria sanguinalis / comparison experiment (activity level), Echinochloa crus-galli / comparison experiment (activity level), Galium aparine / comparison experiment (activity level), Rorippa indica / comparison experiment (activity level), Setaria viridis / comparison experiment (activity level), Veronica polita: Dose 300 g/ha; for weed control effect (activity level), Amaranthus retroflexus / weed control effect (activity level), Chenopodiaceae / weed control effect (activity level), Rorippa indica / weed control effect (activity level), Veronica polita: after 3 weeks
Method: The above described growth inhibition rates are fresh weight inhibition rates. Experiment of post-emergence test: monocotyledonous and dicotyledonous weed seeds as well as main crop seeds (i.e., wheat, corn, rice, soybean, cotton, oilseed rape, millet and sorghum) were put into aplastic pot loaded with soil, then covered with 0.5-2 cm of soil, and the seeds were allowed to grow in good greenhouse environment. The test plants were treated at 4-5 leaf stage 2-3 week […] sowing. The test compounds of the invention were dissolved in acetone respectively, then added with Tween-80 and diluted by a certain amount of water to give solutions with certain concentrations. The solution was sprayed to the plants with as prayer. The plants were cultured for 3 weeks in the greenhouse.

[2] = system: Echinochloa crusgalli, Scirpus juncoides, Sagittaria trifolia L. and Bidens tripartite; experiment: Resistance tests of the collected rice-field weeds; assay type: in vivo; details: common rate; weed seeds collected from Heilongjiang Province of China
From the text: Note: The seeds of Echinochloa crusgalli, Scirpus juncoides, Sagittaria trifolia L. and Bidens tripartite were collected from Heilongjiang Province of China.

Compound	weed control effect (activity level), Amaranthus retroflexus ([1]; Dose 2000 g/ha)	weed control effect (activity level), Chenopodiaceae ([1]; Dose 2000 g/ha)	weed control effect (activity level), Rorippa indica ([1]; Dose 2000 g/ha)	weed control effect (activity level), Veronica polita ([1]; Dose 2000 g/ha)	further results
Oc1cc(Cl)nnc1-c1cccnc1 [Compound 1-1]	10	10	10	10	comparison experiment (activity level), Digitaria sanguinalis [1]: 7 (above 70% growth inhibition rate); comparison experiment (activity level), Echinochloa crus-galli [1]: 8 (above 80% growth inhibition rate); comparison experiment (activity level), Galium aparine [1]: 9 (above 90% growth inhibition rate); comparison experiment (activity level), Rorippa indica [1]: 10; comparison experiment (activity level), Setaria viridis [1]: 10; comparison experiment (activity level), Veronica polita [1]: 9 (above 90% growth inhibition rate)
Oc1cc(Cl)nnc1-c1cccnc1F [Compound 1-2]	10	10	10	10	comparison experiment (activity level), Digitaria sanguinalis [1]: 8 (above 80% growth inhibition rate); comparison experiment (activity level), Echinochloa crus-galli [1]: 10; comparison experiment (activity level), Galium aparine [1]: 9 (above 90% growth inhibition rate); comparison experiment (activity level), Rorippa indica [1]: 10; comparison experiment (activity level), Setaria viridis [1]: 10; comparison experiment (activity level), Veronica polita [1]: 10
Oc1cc(Cl)nnc1-c1ccc(F)nc1 [Compound 1-3]	10	10	10	10	
Oc1cc(Cl)nnc1-c1cncc(F)c1 [Compound 1-4]	10	10	10	10	comparison experiment (activity level), Digitaria sanguinalis [1]: 8 (above 80% growth inhibition rate); comparison experiment (activity level), Echinochloa crus-galli [1]: 8 (above 80% growth inhibition rate); comparison experiment (activity level), Galium aparine [1]: 10; comparison experiment (activity level), Rorippa indica [1]: 10; comparison experiment (activity level), Setaria viridis [1]: 10; comparison experiment (activity level), Veronica polita [1]: 10
Oc1cc(Cl)nnc1-c1cnccc1F [Compound 1-5]	10	10	10	10	
Oc1cc(Cl)nnc1-c1cccnc1Cl [Compound 1-6]	10	10	10	7 (above 70% growth inhibition rate)	
Oc1cc(Cl)nnc1-c1cncc(Cl)c1 [Compound 1-8]	10	10	10	10	
Oc1cc(Cl)nnc1-c1ccc(Br)nc1 [Compound 1-11]	10	10	10	10	
Oc1cc(Cl)nnc1-c1ccc(C(F)(F)F)nc1 [Compound 1-23]	10	10	10	10	
Oc1cc(Cl)nnc1-c1ccc(F)nc1F [Compound 1-57]	10	10	10	10	
Oc1cc(Cl)nnc1-c1cc(F)cnc1F [Compound 1-58]	10	10	10	10	
Oc1cc(Cl)nnc1-c1cnc(F)c(F)c1 [Compound 1-60]	10	10	10	7 (above 70% growth inhibition rate)	
Oc1cc(Cl)nnc1-c1ccc(Cl)nc1Cl [Compound 1-63]	10	10	10	10	
Cc1nc(F)ccc1-c1nnc(Cl)cc1O [Compound 1-90]	10	10	10	7 (above 70% growth inhibition rate)	
Oc1cc(Cl)nnc1-c1cc(F)c(F)nc1F [Compound 1-105]	10	10	10	10	
Oc1cc(C(F)(F)C(F)(F)F)nnc1-c1ccc(F)nc1F [Compound 1-131]					weed control effect (activity level), Amaranthus retroflexus ([1]; Dose 3000 g/ha): 10; weed control effect (activity level), Chenopodiaceae ([1]; Dose 3000 g/ha): 10; weed control effect (activity level), Rorippa indica ([1]; Dose 3000 g/ha): 10; weed control effect (activity level), Veronica polita ([1]; Dose 3000 g/ha): 10
Oc1cc(Cl)nnc1-c1ccnc(F)c1 [Compound 2-3]					comparison experiment (activity level), Digitaria sanguinalis [1]: 10; comparison experiment (activity level), Echinochloa crus-galli [1]: 10; comparison experiment (activity level), Galium aparine [1]: 10; comparison experiment (activity level), Rorippa indica [1]: 10; comparison experiment (activity level), Setaria viridis [1]: 10; comparison experiment (activity level), Veronica polita [1]: 10; weed control effect (activity level), Amaranthus retroflexus ([1]; Dose 1000 g/ha): 10; weed control effect (activity level), Chenopodiaceae ([1]; Dose 1000 g/ha): 10; weed control effect (activity level), Rorippa indica ([1]; Dose 1000 g/ha): 10; weed control effect (activity level), Veronica polita ([1]; Dose 1000 g/ha): 10
Oc1cc(Cl)nnc1-c1ccnc(Cl)c1 [Compound 2-5]					weed control effect (activity level), Amaranthus retroflexus ([1]; Dose 1000 g/ha): 10; weed control effect (activity level), Chenopodiaceae ([1]; Dose 1000 g/ha): 10; weed control effect (activity level), Rorippa indica ([1]; Dose 1000 g/ha): 10; weed control effect (activity level), Veronica polita ([1]; Dose 1000 g/ha): 10
Oc1cc(Cl)nnc1-c1ccnc(F)c1F [Compound 2-10]					weed control effect (activity level), Amaranthus retroflexus ([1]; Dose 1000 g/ha): 10; weed control effect (activity level), Chenopodiaceae ([1]; Dose 1000 g/ha): 10; weed control effect (activity level), Rorippa indica ([1]; Dose 1000 g/ha): 10; weed control effect (activity level), Veronica polita ([1]; Dose 1000 g/ha): 10
Oc1cc(Cl)nnc1-c1cc(F)ncc1F [Compound 2-11]					weed control effect (activity level), Amaranthus retroflexus ([1]; Dose 1000 g/ha): 10; weed control effect (activity level), Chenopodiaceae ([1]; Dose 1000 g/ha): 10; weed control effect (activity level), Rorippa indica ([1]; Dose 1000 g/ha): 10; weed control effect (activity level), Veronica polita ([1]; Dose 1000 g/ha): 10
Oc1cc(Cl)nnc1-c1cc(F)nc(F)c1 [Compound 2-13]					weed control effect (activity level), Amaranthus retroflexus ([1]; Dose 1000 g/ha): 10; weed control effect (activity level), Chenopodiaceae ([1]; Dose 1000 g/ha): 10; weed control effect (activity level), Rorippa indica ([1]; Dose 1000 g/ha): 10; weed control effect (activity level), Veronica polita ([1]; Dose 1000 g/ha): 10
Oc1cc(Cl)nnc1-c1cc(F)nc(Cl)c1 [Compound 2-23]					weed control effect (activity level), Amaranthus retroflexus ([1]; Dose 1000 g/ha): 10; weed control effect (activity level), Chenopodiaceae ([1]; Dose 1000 g/ha): 10; weed control effect (activity level), Rorippa indica ([1]; Dose 1000 g/ha): 10; weed control effect (activity level), Veronica polita ([1]; Dose 1000 g/ha): 10
Oc1cc(Cl)nnc1-c1ccc(F)cn1 [Compound 3-3]	10	10	10	10	
Oc1cc(Cl)nnc1-c1ccc(Cl)cn1 [Compound 3-7]	10	10	10	10	
Oc1cc(Cl)nnc1-c1cc(Cl)ccn1 [Compound 3-8]	10	10	10	10	
Oc1cc(Cl)nnc1-c1ccc(F)c(F)n1 [Compound 3-18]	10	10	10	10	
Oc1cc(Cl)nnc1-c1cc(F)cc(F)n1 [Compound 3-19]	10	10	10	10	
Oc1cc(Cl)nnc1-c1ccc(Cl)c(F)n1 [Compound 3-30]	10	10	10	10	
CCCCCCCCSC(=O)Oc1cc(Cl)nnc1-c1ccccc1 [Control Compound B, reference compound]					comparison experiment (activity level), Digitaria sanguinalis [1]: 0; comparison experiment (activity level), Echinochloa crus-galli [1]: 0; comparison experiment (activity level), Galium aparine [1]: 4 (above 40% growth inhibition rate); comparison experiment (activity level), Rorippa indica [1]: 3 (above 30% growth inhibition rate); comparison experiment (activity level), Setaria viridis [1]: 2 (above 20% growth inhibition rate); comparison experiment (activity level), Veronica polita [1]: 6 (above 60% growth inhibition rate)
CCOC(=O)c1cnn(C)c1S(=O)(=O)NC(=O)Nc1nc(OC)cc(OC)n1 [pyrazosulfuron-ethyl]					resistance of the weeds to the herbicide [2]: resistant
